In brackets after ≈: the same amount, converted by molar mass.
Experiments:
[1] = biological target: T1, Dihydroorotate dehydrogenase (quinone), mitochondrial (Homo sapiens, UniProt Q02127)
Description: Inhibition of human DHODH using dihydroorotate substrate preincubated for 30 mins followed by substrate addition by DCIP based microplate reader analysis

Raji = experiment: Antiproliferative activity against human Raji cells assessed as cell growth inhibition incubated for 96 hrs by MTT assay; format: functional, cell-based
L02 = experiment: cells; format: ADME, cell-based; conditions: Homo sapiens, L02, 96 h
Description: Cytotoxicity against human L02 cells assessed as cell growth inhibition incubated for 96 hrs by MTT assay

[2] = biological target: T1, Dihydroorotate dehydrogenase (quinone), mitochondrial; conditions: dose 100.0 nM, time 30.0 min
in vitro = conditions: human, L02 cells and Raji cells
Description: Selectivity index, ratio of IC50 for human L02 cells to IC50 for human Raji cells

physchem = conditions: aqueous
Description: Aqueous solubility of compound by UPLC method

T1 sequence (Q02127 whole entry): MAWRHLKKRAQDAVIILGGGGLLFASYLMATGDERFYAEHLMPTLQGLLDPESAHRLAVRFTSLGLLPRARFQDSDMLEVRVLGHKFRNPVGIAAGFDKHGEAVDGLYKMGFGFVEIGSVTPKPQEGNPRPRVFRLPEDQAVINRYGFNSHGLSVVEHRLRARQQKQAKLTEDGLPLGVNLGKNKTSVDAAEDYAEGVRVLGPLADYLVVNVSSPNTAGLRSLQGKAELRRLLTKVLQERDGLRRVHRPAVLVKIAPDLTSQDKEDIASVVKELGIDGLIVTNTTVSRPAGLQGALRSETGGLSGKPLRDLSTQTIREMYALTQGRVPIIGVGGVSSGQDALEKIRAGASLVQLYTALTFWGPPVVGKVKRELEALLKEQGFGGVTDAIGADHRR

Compound | IC50 [1] [nM] | IC50 (Raji) [nM] | IC50 (L02) [nM] | inhibition [2] [%] | selectivity ratio (in vitro) | solubility (physchem) [µg/mL]
CCOc1cc(NC(=O)/C(C#N)=C(/C)O)c(F)cc1C(=O)Nc1c(Cl)cccc1Cl | 17.4 | 573 | 2710 | 85.8 | 4.7 | –
C/C(O)=C(\C#N)C(=O)Nc1cc(OC(C)C)c(C(=O)Nc2c(Cl)cccc2Cl)cc1F | 13.1 | 450 | 2620 | 89.4 | 5.8 | –
C/C(O)=C(\C#N)C(=O)Nc1cc(OC(C)C)c(C(=O)Nc2c(F)cccc2F)cc1F | 36.2 | – | – | 70.5 | – | –
C/C(O)=C(\C#N)C(=O)Nc1cc(OC(C)C)c(C(=O)Nc2ccc(F)c(Cl)c2)cc1F | – | – | – | 4.9 | – | –
C/C(O)=C(\C#N)C(=O)Nc1cc(F)c(C(=O)Nc2c(F)cccc2Cl)cc1F | – | – | – | 26.4 | – | –
C/C(O)=C(\C#N)C(=O)Nc1cc(O[C@@H](C)C(F)(F)F)c(C(=O)Nc2c(Cl)cccc2Br)cc1F | 6.2 | 32.2 | 506 | 94.4 | 15.8 | 2900 (≈ 5.14 mM)
C/C(O)=C(\C#N)C(=O)Nc1cc(OC(C)C)c(C(=O)Nc2cccc(F)c2)cc1F | – | – | – | 22.1 | – | –
C/C(O)=C(\C#N)C(=O)Nc1cc(OC(C)C)c(C(=O)Nc2ccccc2Br)cc1F | 41.5 | – | – | 68.5 | – | –
COc1cc(NC(=O)/C(C#N)=C(/C)O)c(F)cc1C(=O)Nc1c(F)cccc1Cl | 31.1 | – | – | 67.7 | – | –
CCOc1cc(NC(=O)/C(C#N)=C(/C)O)c(F)cc1C(=O)Nc1c(F)cccc1Br | 40 | – | – | 72.7 | – | –
CCOc1cc(NC(=O)/C(C#N)=C(/C)O)c(F)cc1C(=O)Nc1c(F)cccc1Cl | 44.1 | – | – | 63.8 | – | –
COc1ccccc1NC(=O)c1cc(F)c(NC(=O)/C(C#N)=C(/C)O)cc1OC(C)C | – | – | – | 5.3 | – | –
C/C(O)=C(\C#N)C(=O)Nc1cc(OC(C)C)c(C(=O)Nc2ccccc2Cl)cc1F | 47.2 | – | – | 62.7 | – | –
COc1cccc(NC(=O)c2cc(F)c(NC(=O)/C(C#N)=C(/C)O)cc2OC(C)C)c1 | – | – | – | 21.3 | – | –

— ChEMBL document CHEMBL5053556, “Design, Synthesis, and Biological Evaluation of a Novel Series of Teriflunomide Derivatives as Potent Human Dihydroorotate Dehydrogenase Inhibitors for Malignancy Treatment” (J Med Chem, 2021)
